Entries after “also recorded” stand apart in the source; their conditions may differ. Where two headings read alike, the source gives them in different places.
Assays:
[1] = tested on: hTERT promoter (PhTERT) expression; test: SEAP assay (PhTERT-SEAP reporter, H1299); type: cell-based, human; details: for activity at 1 µM / activity at 10 µM / activity at 100 µM: Homo sapiens, NCI-H1299, PhTERT-SEAP (H1299); for activity at 1 µM: read-out: Relative SEAP activity (%); for activity at 10 µM / activity at 100 µM: read-out: Relative SEAP activity (%) (converted); for Relative SEAP activity (%): PhTERT-SEAP (H1299)
Method: H1299 were grown in RPMI 1640 media supplemented with 10% fetal bovine serum, 100 units/mL penicillin and […] streptomycin in a humidified atmosphere with 5% CO2 at 37° C. Culture media were changed every three days. To establish stable cell lines that the expression of hTERT could be monitored by a reporter system, a about 3.3 kbp DNA fragment ranging from −3338 to +1 bp of the hTERT gene (hTERT promoter, PhTERT) was subcloned upstream to a secreted alkaline phosphatase gene (SEAP) and transfected into H1299 bp electroporation. The stable clones were selected using G418. The stable clones derived from H1299 were cultured using conditions that are similar to their parental cells.
Secreted alkaline phosphatase was used as the reporter system to monitor the transcriptional activity of hTERT. Here, about 10^4 cells each were grown in 96-well plates and incubated at 37° C. for 24 hours and changed with fresh media. Varying amounts of drugs were added and cells were incubated for another 24 hours. Culture media were collected and heated at 65° C. for 10 min to inactivate heat-labile phosphatases. An equal amount of SEAP buffer (2 M diethanolamine, 1 mM MgCl2, and 20 mM L-homoarginine) was added to the media and p-nitrophenyl phosphate was added to a final concentration of 12 mM. Absorptions at 405 nm were taken, and the rate of absorption increase is determined (the increasing rate of absorbance at 405 nm was used to represent the activity of SEAP).

[2] = MTT assay (relative cell survival), H1299; details: human, H1299 non-small cell lung cancer cells (PhTERT-SEAP), Relative MTT viability (%)
Method: (§1) Further, cells were subjected to MTT assay to compare the relative toxicity or effect of each compound on cell proliferation and activity.
(§2) The above-described cells are cultured in a 96-well plate, to which was added with 25 μl MTT solution, and cultured in a 37° C. carbon dioxide incubator for 4 hours. Then, 100 μl Lysis buffer is added and incubated in a 37° C. carbon dioxide incubator overnight. An ELISA reader (Bio-Rad Model 450) is used to read optical density (O.D.) at 550 nm.
(§3) After being subjected to different compound treatments for 72 hours, cells were treated with a fixed amount of MTT solution for 28 hours. Then, DMSO was used to dissolve back formazan, an O. D. value was detected at wavelength in the range of 550/670 nm, and calculated accordingly the cell survival rate (as shown in Table 1).

[3] = tested on: H1299 cells; test: MTT assay (relative cell survival), H1299; details: PhTERT-SEAP (H1299), 100 μM
Method: as §1, §2, §3

[4] = tested on: H1299 cells
Method: as §1, §2, §3

[5] = in vitro; details: human, Relative MTT viability (%)
Method: as §1, §2, §3

[6] = molecular target: T1, telomerase (total cell lysates of lung cancer cell line H1299) (Homo sapiens, UniProt O14746); test: Telomere repeat amplification protocol (TRAP) assay; type: biochemical; details: gel; for inhibition effect/activity of telomerase (TRAP): preliminary screening at 10 μM
T1 construct: As a source of telomerase, the total cell lysates derived from lung cancer cell line H1299 cells were used; endogenous in cells; host or cells: H1299 lung cancer cells (total cell lysate)
Method: Telomerase activity was detected by a modified version of the general TRAP protocol. Telomerase products were resolved by 10% polyacrylamide gel electrophoresis and visualized by staining with SYBER Green. As a source of telomerase, the total cell lysates derived from lung cancer cell line H1299 cells were used. Protein concentration of the lysates was assayed using Bio-Rad protein assay kit using BSA standards.
In the FIGS. 3A, 3B and FIG. 4, a positive control group (P) used water that had been sterilized three times in the assay; while a negative control group (N) used RNase A (CLONTECH) (5 μL, 0.1 mg/mL) in the assay.
In the positive control group (P), due to the absence of inhibitor, the telomerase could extend the telomere, such that some longer telomere fragments could be observed; while there was not observed in the negative control group (N). In the result of TRAP assay (FIG. 3A to 3B), compounds with a concentration of 10 μM was used as the preliminary screening. In the gel, standard compound A was 1,2-diaminoanthraquinone, D was doxorubicin, and M was mitoxantrone.

T1 sequence (O14746 whole entry): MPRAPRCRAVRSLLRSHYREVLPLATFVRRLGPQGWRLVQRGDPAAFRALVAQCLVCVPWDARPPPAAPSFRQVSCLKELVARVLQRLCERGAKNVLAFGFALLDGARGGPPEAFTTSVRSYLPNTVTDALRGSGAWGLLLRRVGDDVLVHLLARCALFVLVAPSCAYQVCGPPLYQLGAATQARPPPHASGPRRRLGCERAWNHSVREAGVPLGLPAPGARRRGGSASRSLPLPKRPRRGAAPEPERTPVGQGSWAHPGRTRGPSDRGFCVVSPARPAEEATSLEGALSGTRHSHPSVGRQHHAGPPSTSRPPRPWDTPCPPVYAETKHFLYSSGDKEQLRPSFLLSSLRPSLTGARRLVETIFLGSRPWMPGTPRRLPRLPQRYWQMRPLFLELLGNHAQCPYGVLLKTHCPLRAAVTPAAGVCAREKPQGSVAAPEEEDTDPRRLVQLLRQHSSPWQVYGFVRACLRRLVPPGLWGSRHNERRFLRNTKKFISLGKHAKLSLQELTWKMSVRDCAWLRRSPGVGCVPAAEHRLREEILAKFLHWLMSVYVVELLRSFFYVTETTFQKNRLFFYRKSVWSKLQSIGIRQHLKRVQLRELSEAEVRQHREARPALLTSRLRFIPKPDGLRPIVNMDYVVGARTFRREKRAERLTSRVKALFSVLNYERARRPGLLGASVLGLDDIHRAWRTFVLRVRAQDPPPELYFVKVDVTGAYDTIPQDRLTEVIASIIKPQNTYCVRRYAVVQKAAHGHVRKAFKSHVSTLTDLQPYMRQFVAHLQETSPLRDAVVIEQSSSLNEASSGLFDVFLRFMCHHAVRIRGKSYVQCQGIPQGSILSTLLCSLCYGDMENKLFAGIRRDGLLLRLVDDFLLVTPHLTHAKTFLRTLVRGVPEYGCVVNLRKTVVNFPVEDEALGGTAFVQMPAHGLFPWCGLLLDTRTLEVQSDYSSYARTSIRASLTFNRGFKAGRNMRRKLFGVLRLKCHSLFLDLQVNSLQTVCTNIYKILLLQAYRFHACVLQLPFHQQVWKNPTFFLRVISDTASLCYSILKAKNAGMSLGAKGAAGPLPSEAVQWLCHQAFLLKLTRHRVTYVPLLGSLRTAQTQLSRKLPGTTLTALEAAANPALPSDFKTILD
T1 sequence (O60832 whole entry partner): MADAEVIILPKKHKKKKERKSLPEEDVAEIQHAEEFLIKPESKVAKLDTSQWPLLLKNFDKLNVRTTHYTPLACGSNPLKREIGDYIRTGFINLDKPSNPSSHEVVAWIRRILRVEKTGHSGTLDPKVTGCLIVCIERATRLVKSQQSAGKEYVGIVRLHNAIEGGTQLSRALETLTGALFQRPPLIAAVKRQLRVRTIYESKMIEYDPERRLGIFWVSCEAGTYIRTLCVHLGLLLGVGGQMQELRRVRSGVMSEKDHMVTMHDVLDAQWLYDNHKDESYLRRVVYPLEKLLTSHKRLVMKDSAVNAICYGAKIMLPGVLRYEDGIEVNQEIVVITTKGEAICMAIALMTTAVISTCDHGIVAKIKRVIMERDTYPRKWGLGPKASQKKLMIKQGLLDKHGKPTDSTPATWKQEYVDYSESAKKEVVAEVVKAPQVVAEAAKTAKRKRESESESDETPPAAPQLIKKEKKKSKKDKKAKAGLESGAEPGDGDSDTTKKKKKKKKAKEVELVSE
T1 sequence (Q9NX24 whole entry partner): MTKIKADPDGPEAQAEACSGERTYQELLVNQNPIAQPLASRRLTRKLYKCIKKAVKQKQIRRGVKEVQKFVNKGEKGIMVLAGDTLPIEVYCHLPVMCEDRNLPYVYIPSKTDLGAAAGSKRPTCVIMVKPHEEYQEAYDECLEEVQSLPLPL
T1 sequence (Q9NPE3 whole entry partner): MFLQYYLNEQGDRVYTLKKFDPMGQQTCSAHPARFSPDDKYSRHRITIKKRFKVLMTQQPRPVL
T1 sequence (Q9NY12 whole entry partner): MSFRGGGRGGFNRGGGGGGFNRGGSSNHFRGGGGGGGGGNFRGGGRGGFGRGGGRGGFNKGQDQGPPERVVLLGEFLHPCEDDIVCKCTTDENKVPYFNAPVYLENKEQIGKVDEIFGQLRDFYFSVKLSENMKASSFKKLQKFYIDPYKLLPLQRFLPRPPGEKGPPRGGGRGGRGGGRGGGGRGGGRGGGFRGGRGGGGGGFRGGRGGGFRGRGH

SMILES	activity at 1 µM ([1]; 1 μM) [%]	activity at 10 µM ([1]; 10 μM) [%]	activity at 100 µM [1] [%]	viability at 72 h, 1 µM [2] [%]	viability at 72 h, 10 µM [2] [%]	viability at 72 h, 100 µM [2] [%]	Relative MTT viability (%) [3] [%]	viability at 72 h, 1 µM [5] [%]	viability at 72 h, 10 µM [5] [%]	further results
O=C1c2ccccc2C(=O)c2c1ccc1nc(CCN3CCN(c4ccccn4)CC3)[nH]c21 [CL38, 2-(2-(4-(pyridin-2-yl)piperazin-1-yl)ethyl)-1H-anthra[1,2-d]imidazole-6,11-dione]	87.6 ± 8.63	62.9	1.49	98 ± 7.72	92.8	> 40	57.03 ± 10.76	–	–	–
CN(Cc1nc2ccc3c(c2[nH]1)C(=O)c1ccccc1C3=O)Cc1c2ccccc2cc2ccccc12 [CL11, 2-(((anthracen-10-yl)-N-methylmethanamino)methyl)-1H-anthra[1,2-d]imidazole-6,11-dione]	–	–	–	–	–	–	–	–	–	Relative SEAP activity (%) ([1]; 1 μM): 101.69 ± 5.82%; Relative SEAP activity (%) ([1]; 10 μM): 77.46 ± 6.40%; Relative MTT viability (%) ([4]; 1 µM): 98.03 ± 4.48%; Relative MTT viability (%) ([4]; 10 µM): 83.80 ± 5.64%
Nc1ccc2c(c1N)C(=O)c1ccccc1C2=O [1,2-diaminoanthraquinone, reference compound]	98.5 ± 11.7	77.3 ± 11.6	18.2 ± 4.45	–	–	–	–	105 ± 9.37	95.5 ± 3.75	viability at 72 h, 100 µM [5]: 39.3 ± 8.84%
O=C1c2ccccc2C(=O)c2c1ccc1nc(CN3CCC(CCCC4CCNCC4)CC3)[nH]c21 [CL20, 2-((4-(3-(piperidin-4-yl)propyl)piperidin-1-yl)methyl)-1H-anthra[1,2-d]imidazole-6,11-dione]	96 ± 5.48	7.52	3.08	97 ± 4.74	< 50	–	–	–	–	telomerase inhibiting effect (TRAP) ([6]; 1 μM): telomerase inhibiting effect could be observed still; inhibition effect/activity of telomerase (TRAP) [6]: more significant inhibition effect/activity of telomerase; also recorded: highest inhibition effect/activity of telomerase
COc1cccc2c1C(=O)c1c(O)c3c(c(O)c1C2=O)C[C@@](O)(C(=O)CO)C[C@@H]3O[C@H]1C[C@H](N)[C@H](O)[C@H](C)O1 [doxorubicin, reference compound]	33.8 ± 3.22	13.6 ± 3.56	5.18 ± 4.01	–	–	–	–	17.1 ± 5.37	–	Relative MTT viability (%) ([4]; human, 72 h, 10 µM): −9.79 ± 2.78%; Relative MTT viability (%) ([4]; human, 72 h, 100 µM): −11.38 ± 4.34%
CC1CCN(Cc2nc3ccc4c(c3[nH]2)C(=O)c2ccccc2C4=O)CC1 [CL17, 2-((4-methylpiperidin-1-yl)methyl)-1H-anthra[1,2-d]imidazole-6,11-dione]	102 ± 4.81	97.3	25.6	114 ± 3.31	110	> 40	32.26 ± 2.68	–	–	–
O=C1c2ccccc2C(=O)c2c1ccc1nc(CNCc3cccc(C(F)(F)F)c3)[nH]c21 [CL13, 2-((3-(trifluoromethyl)benzylamino)methyl)-1H-anthra[1,2-d]imidazole-6,11-dione]	87.1 ± 2.04	89.5	4.27	114 ± 3.31	110	> 40	32.26 ± 2.68	–	–	–
O=C1c2ccccc2C(=O)c2c1ccc1nc(CCl)[nH]c21 [CL01, 2-(chloromethyl)-1H-anthra[1,2-d]imidazole-6,11-dione]	69.2 ± 1.89	-0.58 ± 1.16	2.87 ± 1.42	–	–	–	–	82.3 ± 6.19	< 50	Relative MTT viability (%) ([4]; human, 72 h, 100 µM): −5.28 ± 1.13%
O=C1c2ccccc2C(=O)c2c1ccc1nc(CCN3CCN(c4ccccc4)CC3)[nH]c21 [CL37, 2-(2-(4-phenylpiperazin-1-yl)ethyl)-1H-anthra[1,2-d]imidazole-6,11-dione]	104 ± 4.96	92.7	36.6	–	–	–	–	94 ± 0.98	96.5	–
CCN1CCN(Cc2nc3ccc4c(c3[nH]2)C(=O)c2ccccc2C4=O)CC1 [CL25, 2-((4-ethylpiperazin-1-yl)methyl)-1H-anthra[1,2-d]imidazole-6,11-dione]	91.8 ± 3	13.6	-4.43	86.2 ± 5.18	< 50	–	–	–	–	inhibition effect/activity of telomerase (TRAP) [6]: more significant inhibition effect/activity of telomerase
O=C1c2c(O)ccc(O)c2C(=O)c2c(NCCNCCO)ccc(NCCNCCO)c21 [mitoxantrone, reference compound]	20.8 ± 1.56	9.92 ± 4.8	7.19 ± 1.59	–	–	–	–	23.7 ± 8.06	–	Relative MTT viability (%) ([4]; human, 72 h, 10 µM): −8.51 ± 1.13%; Relative MTT viability (%) ([4]; human, 72 h, 100 µM): −0.44 ± 1.01%
COc1cccc(N2CCN(Cc3nc4ccc5c(c4[nH]3)C(=O)c3ccccc3C5=O)CC2)c1 [CL32, 2-((4-(3-methoxyphenyl)piperazin-1-yl)methyl)-1H-anthra[1,2-d]imidazole-6,11-dione]	105 ± 5.64	< 50	3.33	–	–	–	–	81.3 ± 9.72	> 50	viability at 72 h, 100 µM [5]: 23.9%
O=C1c2ccccc2C(=O)c2c1ccc1nc(CCCl)[nH]c21 [CL35, 2-(2-chloroethyl)-1H-anthra[1,2-d]imidazole-6,11-dione]	94.7 ± 9.12	82.8	7.62	91.1 ± 5.56	85.6	> 40	40.27 ± 1.32	–	–	–

Reference: US8124637B2, “Anthra [1, 2-d]imidazole-6,11-dione derivatives, preparation method and application thereof” (National Defense Medical Center, priority 2010, dated 2012)
